Experimental data from patent US20070128217A1 (priority 2003, published 2007).

How the values were obtained:
[1] = system: antibodies in sera from SARS patients (sera 1a, 1b, 2, 6, 37, 62, London, SARS-yellow, SARS-green); format: binding, human; parameters: Binding of serum 6 to linear peptides of protein X1 of SARS-CoV Urbani / Binding of serum 37 to linear peptides of protein X1 of SARS-CoV Urbani / Binding of serum 6 to looped/cyclic peptide (PEPSCAN-ELISA) / Binding of serum 37 to looped/cyclic peptide (PEPSCAN-ELISA) / Binding of serum 37 to looped/cyclic peptides of protein X1 of SARS-CoV Urbani / Binding of serum 6 to linear peptides of protein X2 / Binding of serum 37 to linear peptides of protein X2 / Binding of serum 37 to looped/cyclic peptides of protein X2 of SARS-CoV Urbani / Binding of serum 6 to linear peptides of protein M of SARS-CoV Urbani / Binding of serum 37 to linear peptides of protein M of SARS-CoV Urbani / Binding of serum 6 to looped/cyclic peptides of protein M of SARS-CoV Urbani / Binding of serum 37 to looped/cyclic peptides of protein M of SARS-CoV Urbani / Binding of serum 6 to linear peptides of protein X3 of SARS-CoV Urbani / Binding of serum 37 to linear peptides of protein X3 of SARS-CoV Urbani / Binding of serum 37 to looped/cyclic peptides of protein X3 of SARS-CoV Urbani / Binding of serum 6 to linear peptides of protein X4 of SARS-CoV Urbani / Binding of serum 37 to linear peptides of protein X4 of SARS-CoV Urbani / Binding of serum 37 to looped/cyclic peptides of protein X4 of SARS-CoV Urbani / Binding of serum 6 to linear peptides of protein X5 of SARS-CoV Urbani / Binding of serum 37 to linear peptides of protein X5 of SARS-CoV Urbani / Binding of serum 37 to looped/cyclic peptides of protein X5 of SARS-CoV Urbani / Binding of serum 6 to linear peptides of protein N of SARS-CoV Urbani / Binding of serum 37 to linear peptides of protein N of SARS-CoV Urbani / Binding of serum 6 to linear peptide (PEPSCAN-ELISA) / Binding of serum 1a to looped/cyclic peptides of protein N of SARS-CoV Urbani / Binding of serum 1b to looped/cyclic peptides of protein N of SARS-CoV Urbani / Binding of serum 2 to looped/cyclic peptides of protein N of SARS-CoV Urbani / Binding of serum 6 to looped/cyclic peptides of protein N of SARS-CoV Urbani / Binding of serum 37 to looped/cyclic peptides of protein N of SARS-CoV Urbani / Binding of serum 62 to looped/cyclic peptides of protein N of SARS-CoV Urbani / Binding of serum London to looped/cyclic peptides of protein N of SARS-CoV Urbani / Binding of serum SARS-green to looped/cyclic peptides of protein N of SARS-CoV Urbani: unit not given here
[2] = system: control sera (pooled serum of ten healthy LUMC hospital workers; commercial negative donor pooled serum from the Dutch bloodbank); format: binding, human; parameters: Binding of Control serum LUMC to linear peptides / Binding of Control serum Blood-bank to linear peptides / Binding of Control serum LUMC to looped peptides / Binding of Control Serum Blood-Bank to Looped peptides / Binding of Control serum LUMC to linear peptides of the protein M of SARS-CoV Urbani / Binding of Control serum Blood-bank to linear peptides of the protein M of SARS-CoV Urbani / Binding of Control serum LUMC to looped peptides of the protein M of SARS-CoV Urbani / Binding of Control Serum Blood-Bank to Looped peptides of the protein M of SARS-CoV Urbani: unit not given here
[3] = system: rabbit serum obtained by immunizing a rabbit with the SARS-CoV strain Frankfurt 1; format: binding; parameters: Binding of a rabbit serum to linear peptides / Binding of a rabbit serum to looped peptides / Rabbit serum linear peptides / Rabbit serum looped peptides / Binding of a rabbit serum to linear peptides of protein N of SARS-CoV Urbani (Rabbit serum linear peptides) / Binding of a rabbit serum to looped/cyclic peptides of protein N of SARS-CoV Urbani (Rabbit serum looped peptides): unit not given here

VTDTIVVTEGDGIST
0.6: Binding of serum 1a to linear peptides of protein X1 of SARS-CoV Urbani [1]
0.1: Binding of serum 6 to looped/cyclic peptides of protein X1 of SARS-CoV Urbani [1] | Binding of serum SARS-green to linear peptides of protein X1 of SARS-CoV Urbani [1] | Binding of a rabbit serum to linear peptides [3]
0.5: Binding of serum 1b to linear peptides of protein X1 of SARS-CoV Urbani [1] | Binding of serum 37 to linear peptides of protein X1 of SARS-CoV Urbani [1] | Binding of serum SARS-yellow to looped/cyclic peptides of protein X1 of SARS-CoV Urbani [1] | Binding of a rabbit serum to looped peptides [3]
0.3: Binding of serum 1b to looped/cyclic peptides of protein X1 of SARS-CoV Urbani [1] | Binding of serum 2 to linear peptides of protein X1 of SARS-CoV Urbani [1] | Binding of serum SARS-yellow to linear peptides of protein X1 of SARS-CoV Urbani [1]
0.2: Binding of serum 2 to looped/cyclic peptides of protein X1 of SARS-CoV Urbani [1] | Binding of serum London to linear peptides of protein X1 of SARS-CoV Urbani [1] | Binding of serum London to looped/cyclic peptides of protein X1 of SARS-CoV Urbani [1] | Binding of serum SARS-green to looped/cyclic peptides of protein X1 of SARS-CoV Urbani [1]
0.4: Binding of serum 1a to looped/cyclic peptides of protein X1 of SARS-CoV Urbani [1] | Binding of serum 6 to linear peptides of protein X1 of SARS-CoV Urbani [1] | Binding of serum 37 to looped/cyclic peptides of protein X1 of SARS-CoV Urbani [1] | Binding of serum 62 to linear peptides of protein X1 of SARS-CoV Urbani [1] | Binding of serum 62 to looped/cyclic peptides of protein X1 of SARS-CoV Urbani [1] | Binding of Control Serum Blood-Bank to Looped peptides [2] | Binding of Control serum Blood-bank to linear peptides [2] | Binding of Control serum LUMC to linear peptides [2] | Binding of Control serum LUMC to looped peptides [2]

IAIWNLDVIISSIVR
0.3: Binding of serum 1b to looped/cyclic peptides of protein X3 of SARS-CoV Urbani [1] | Binding of serum SARS-green to linear peptides of protein X3 of SARS-CoV Urbani [1] | Rabbit serum linear peptides [3] | Rabbit serum looped peptides [3]
0.7: Binding of serum 1a to linear peptides of protein X3 of SARS-CoV Urbani [1] | Binding of serum 1a to looped/cyclic peptides of protein X3 of SARS-CoV Urbani [1] | Binding of Control Serum Blood-Bank to Looped peptides of the protein X3 of SARS-CoV Urbani [2] | Binding of Control serum LUMC to looped peptides of the protein X3 of SARS-CoV Urbani [2]
0.4: Binding of serum 6 to looped/cyclic peptides of protein X3 of SARS-CoV Urbani [1] | Binding of serum SARS-yellow to linear peptides of protein X3 of SARS-CoV Urbani [1]
0.2: Binding of serum London to looped/cyclic peptides of protein X3 of SARS-CoV Urbani [1]
0.0: Binding of serum SARS-green to looped/cyclic peptides of protein X3 of SARS-CoV Urbani [1]
0.5: Binding of serum 1b to linear peptides of protein X3 of SARS-CoV Urbani [1] | Binding of serum 6 to linear peptides of protein X3 of SARS-CoV Urbani [1] | Binding of serum 37 to linear peptides of protein X3 of SARS-CoV Urbani [1] | Binding of serum 62 to looped/cyclic peptides of protein X3 of SARS-CoV Urbani [1] | Binding of Control serum LUMC to linear peptides of the protein X3 of SARS-CoV Urbani [2]
0.6: Binding of serum 2 to linear peptides of protein X3 of SARS-CoV Urbani [1] | Binding of serum 2 to looped/cyclic peptides of protein X3 of SARS-CoV Urbani [1] | Binding of serum 37 to looped/cyclic peptides of protein X3 of SARS-CoV Urbani [1] | Binding of serum 62 to linear peptides of protein X3 of SARS-CoV Urbani [1] | Binding of serum London to linear peptides of protein X3 of SARS-CoV Urbani [1] | Binding of serum SARS-yellow to looped/cyclic peptides of protein X3 of SARS-CoV Urbani [1] | Binding of Control serum Blood-bank to linear peptides of the protein X3 of SARS-CoV Urbani [2]

NTRGNTYSTAWLCAL
0.2: Binding of serum 1b to looped/cyclic peptides of protein X5 of SARS-CoV Urbani [1] | Binding of serum 6 to looped/cyclic peptides of protein X5 of SARS-CoV Urbani [1]
0.6: Binding of serum 1b to linear peptides of protein X5 of SARS-CoV Urbani [1] | Binding of serum 2 to linear peptides of protein X5 of SARS-CoV Urbani [1] | Binding of serum SARS-green to linear peptides of protein X5 of SARS-CoV Urbani [1]
0.1: Binding of serum London to looped/cyclic peptides of protein X5 of SARS-CoV Urbani [1]
0.8: Binding of Control serum Blood-bank to linear peptides [2] | Rabbit serum linear peptides [3]
0.5: Binding of serum 37 to looped/cyclic peptides of protein X5 of SARS-CoV Urbani [1] | Binding of serum SARS-yellow to linear peptides of protein X5 of SARS-CoV Urbani [1] | Binding of serum SARS-yellow to looped/cyclic peptides of protein X5 of SARS-CoV Urbani [1] | Binding of Control serum LUMC to looped peptides [2] | Rabbit serum looped peptides [3]
0.4: Binding of serum 1a to looped/cyclic peptides of protein X5 of SARS-CoV Urbani [1] | Binding of serum 2 to looped/cyclic peptides of protein X5 of SARS-CoV Urbani [1] | Binding of Control Serum Blood-Bank to Looped peptides [2]
0.9: Binding of serum 1a to linear peptides of protein X5 of SARS-CoV Urbani [1]
0.7: Binding of serum 6 to linear peptides of protein X5 of SARS-CoV Urbani [1] | Binding of serum 37 to linear peptides of protein X5 of SARS-CoV Urbani [1] | Binding of serum 62 to linear peptides of protein X5 of SARS-CoV Urbani [1] | Binding of serum 62 to looped/cyclic peptides of protein X5 of SARS-CoV Urbani [1] | Binding of serum London to linear peptides of protein X5 of SARS-CoV Urbani [1] | Binding of Control serum LUMC to linear peptides [2]
0.3: Binding of serum SARS-green to looped/cyclic peptides of protein X5 of SARS-CoV Urbani [1]

TIDGSSGVANPAMDP
0.1: Binding of a rabbit serum to linear peptides [3]
0.5: Binding of serum 1a to looped/cyclic peptides of protein X1 of SARS-CoV Urbani [1]
0.4: Binding of serum 1b to looped/cyclic peptides of protein X1 of SARS-CoV Urbani [1] | Binding of serum 2 to looped/cyclic peptides of protein X1 of SARS-CoV Urbani [1] | Binding of serum London to linear peptides of protein X1 of SARS-CoV Urbani [1] | Binding of serum SARS-green to linear peptides of protein X1 of SARS-CoV Urbani [1] | Binding of Control Serum Blood-Bank to Looped peptides [2] | Binding of Control serum Blood-bank to linear peptides [2] | Binding of Control serum LUMC to looped peptides [2] | Binding of a rabbit serum to looped peptides [3]
0.3: Binding of serum 6 to looped/cyclic peptides of protein X1 of SARS-CoV Urbani [1] | Binding of serum 37 to looped/cyclic peptides of protein X1 of SARS-CoV Urbani [1] | Binding of serum 62 to looped/cyclic peptides of protein X1 of SARS-CoV Urbani [1] | Binding of serum SARS-green to looped/cyclic peptides of protein X1 of SARS-CoV Urbani [1] | Binding of serum SARS-yellow to linear peptides of protein X1 of SARS-CoV Urbani [1]
0.2: Binding of serum London to looped/cyclic peptides of protein X1 of SARS-CoV Urbani [1] | Binding of serum SARS-yellow to looped/cyclic peptides of protein X1 of SARS-CoV Urbani [1]
0.6: Binding of serum 1a to linear peptides of protein X1 of SARS-CoV Urbani [1] | Binding of serum 1b to linear peptides of protein X1 of SARS-CoV Urbani [1] | Binding of serum 2 to linear peptides of protein X1 of SARS-CoV Urbani [1] | Binding of serum 6 to linear peptides of protein X1 of SARS-CoV Urbani [1] | Binding of serum 37 to linear peptides of protein X1 of SARS-CoV Urbani [1] | Binding of serum 62 to linear peptides of protein X1 of SARS-CoV Urbani [1] | Binding of Control serum LUMC to linear peptides [2]

LTLIVFTSCELYHYQ
0.5: Binding of serum 2 to linear peptides of protein X4 of SARS-CoV Urbani [1] | Binding of serum 6 to linear peptides of protein X4 of SARS-CoV Urbani [1] | Binding of serum 6 to looped/cyclic peptides of protein X4 of SARS-CoV Urbani [1] | Rabbit serum linear peptides [3]
0.8: Binding of serum 1a to looped/cyclic peptides of protein X4 of SARS-CoV Urbani [1] | Binding of serum 62 to linear peptides of protein X4 of SARS-CoV Urbani [1] | Binding of Control serum LUMC to looped peptides [2]
0.3: Binding of serum London to looped/cyclic peptides of protein X4 of SARS-CoV Urbani [1] | Rabbit serum looped peptides [3]
0.4: Binding of serum SARS-green to looped/cyclic peptides of protein X4 of SARS-CoV Urbani [1] | Binding of serum SARS-yellow to linear peptides of protein X4 of SARS-CoV Urbani [1]
0.7: Binding of serum 1a to linear peptides of protein X4 of SARS-CoV Urbani [1] | Binding of serum 1b to looped/cyclic peptides of protein X4 of SARS-CoV Urbani [1] | Binding of serum 2 to looped/cyclic peptides of protein X4 of SARS-CoV Urbani [1] | Binding of serum 37 to linear peptides of protein X4 of SARS-CoV Urbani [1] | Binding of serum 37 to looped/cyclic peptides of protein X4 of SARS-CoV Urbani [1] | Binding of serum 62 to looped/cyclic peptides of protein X4 of SARS-CoV Urbani [1] | Binding of serum London to linear peptides of protein X4 of SARS-CoV Urbani [1] | Binding of serum SARS-green to linear peptides of protein X4 of SARS-CoV Urbani [1] | Binding of serum SARS-yellow to looped/cyclic peptides of protein X4 of SARS-CoV Urbani [1] | Binding of Control Serum Blood-Bank to Looped peptides [2] | Binding of Control serum Blood-bank to linear peptides [2] | Binding of Control serum LUMC to linear peptides [2]
0.6: Binding of serum 1b to linear peptides of protein X4 of SARS-CoV Urbani [1]
